Assays:
Experiment in all cases: relative viability (nuclei count vs DMSO), 5 days (fraction); higher = more cells survive
Alisertib + Crizotinib = compound: COc1cc(Nc2ncc3c(n2)-c2ccc(Cl)cc2C(c2c(F)cccc2OC)=NC3)ccc1C(=O)O [Alisertib] + C[C@@H](Oc1cc(-c2cnn(C3CCNCC3)c2)cnc1N)c1c(Cl)ccc(F)c1Cl [Crizotinib] (partner 1 µM)
Summary of the method: (§1)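 Lung cancer cell lines, seeded in 1536-well plates, were treated the following day by pin tool with a single drug or with five library-drug doses (not always all listed) in √10 steps on top of a fixed anchor-drug dose. Cells were fixed and nuclei stained in one step after 5 days, and nuclei were counted. Relative viability is the nuclei count for treated wells divided by that for vehicle wells, reported as medians of duplicate plates.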

Alisertib + Linsitinib = compound: COc1cc(Nc2ncc3c(n2)-c2ccc(Cl)cc2C(c2c(F)cccc2OC)=NC3)ccc1C(=O)O [Alisertib] + C[C@]1(O)C[C@@H](c2nc(-c3ccc4ccc(-c5ccccc5)nc4c3)c3c(N)nccn32)C1 [Linsitinib] (partner 1 µM)
Summary of the method: as §1

Alisertib + OSI-027 = compound: COc1cc(Nc2ncc3c(n2)-c2ccc(Cl)cc2C(c2c(F)cccc2OC)=NC3)ccc1C(=O)O [Alisertib] + COc1cccc2cc(-c3nc([C@H]4CC[C@H](C(=O)O)CC4)n4ncnc(N)c34)[nH]c12 [OSI-027] (partner 0.5 µM)
Summary of the method: as §1

Alisertib + Tozasertib = compound: COc1cc(Nc2ncc3c(n2)-c2ccc(Cl)cc2C(c2c(F)cccc2OC)=NC3)ccc1C(=O)O [Alisertib] + Cc1cc(Nc2cc(N3CCN(C)CC3)nc(Sc3ccc(NC(=O)C4CC4)cc3)n2)n[nH]1 [Tozasertib] (partner 0.1 µM)
Summary of the method: as §1

Cell Line	relative viability (Alisertib + Crizotinib; first compound 0.005 µM)	relative viability (Alisertib + Crizotinib; first compound 0.01581 µM)	relative viability (Alisertib + Crizotinib; first compound 0.05 µM)	relative viability (Alisertib + Crizotinib; first compound 0.1581 µM)	relative viability (Alisertib + Crizotinib; first compound 0.5 µM)	relative viability (Alisertib + Linsitinib; first compound 0.005 µM)	relative viability (Alisertib + Linsitinib; first compound 0.01581 µM)	relative viability (Alisertib + Linsitinib; first compound 0.05 µM)	relative viability (Alisertib + Linsitinib; first compound 0.1581 µM)	relative viability (Alisertib + Linsitinib; first compound 0.5 µM)	relative viability (Alisertib + OSI-027; first compound 0.005 µM)	relative viability (Alisertib + OSI-027; first compound 0.01581 µM)	relative viability (Alisertib + OSI-027; first compound 0.05 µM)	relative viability (Alisertib + OSI-027; first compound 0.1581 µM)	relative viability (Alisertib + OSI-027; first compound 0.5 µM)	relative viability (Alisertib + Tozasertib; first compound 0.005 µM)	relative viability (Alisertib + Tozasertib; first compound 0.01581 µM)	relative viability (Alisertib + Tozasertib; first compound 0.05 µM)	relative viability (Alisertib + Tozasertib; first compound 0.1581 µM)	relative viability (Alisertib + Tozasertib; first compound 0.5 µM)
201T	0.982	0.992	0.938	0.809	0.418	0.99	1.07	1	0.745	0.348	0.712	0.762	0.632	0.249	0.126	0.899	0.681	0.579	0.407	0.354
PC-14	0.845	0.877	0.654	0.145	0.112	0.91	0.848	0.774	0.222	0.117	0.659	0.8	0.393	0.0786	0.049	0.566	0.492	0.26	0.0568	0.06
UMC-11	0.515	0.285	0.117	0.103	0.0832	0.755	0.495	0.168	0.148	0.158	0.328	0.219	0.165	0.175	0.189	0.201	0.23	0.201	0.213	0.219
PC-3 [JPC-3]	0.955	0.981	0.646	0.474	0.386	0.967	0.908	0.864	0.559	0.447	0.784	0.764	0.703	0.407	0.306	0.893	0.814	0.548	0.551	0.387
LK-2	0.226	0.232	0.224	0.233	0.288	0.519	0.454	0.337	0.206	0.175	0.224	0.232	0.185	0.166	0.17	0.167	0.184	0.164	0.197	0.185
COR-L23	0.571	0.48	0.17	0.151	0.102	0.794	0.799	0.401	0.178	0.121	0.739	0.661	0.517	0.133	0.13	0.439	0.213	0.119	0.124	0.114
NCI-H1944	1.05	1.04	0.504	0.386	0.222	1.23	1.33	0.971	0.508	0.265	0.375	0.454	0.393	0.196	0.175	0.242	0.239	0.258	0.195	0.187
HCC-78	0.358	0.291	0.205	0.153	0.205	0.412	0.418	0.183	0.15	0.187	0.536	0.354	0.244	0.244	0.241	0.446	0.273	0.281	0.245	0.211
NCI-H2405	0.781	0.794	0.491	0.268	0.253	0.922	0.814	0.818	0.384	0.266	0.63	0.666	0.592	0.321	0.231	0.772	0.618	0.308	0.293	0.258
SW 1573	0.776	0.466	0.434	0.248	0.113	0.856	0.824	0.649	0.176	0.143	0.556	0.5	0.284	0.148	0.102	0.135	0.153	0.132	0.147	0.158
EMC-BAC-2	0.683	0.382	0.25	0.225	0.148	0.752	0.595	0.298	0.279	0.202	0.334	0.29	0.231	0.217	0.178	0.243	0.283	0.214	0.224	0.173
NCI-H647	0.91	0.625	0.241	0.193	0.109	1.15	0.883	0.373	0.287	0.0691	0.662	0.487	0.227	0.116	0.102	0.345	0.261	0.125	0.152	0.101
LCLC-97TM1	0.334	0.298	0.138	0.128	0.152	0.197	0.185	0.135	0.114	0.0896	0.424	0.349	0.264	0.129	0.0853	0.203	0.185	0.166	0.181	0.149
H3255	0.909	0.765	0.662	0.205	0.174	0.898	0.832	0.418	0.192	0.164	0.589	0.575	0.444	0.269	0.271	0.737	0.503	0.296	0.137	0.227
LXF-289	0.762	0.443	0.204	0.186	0.178	0.843	0.814	0.21	0.194	0.116	0.637	0.656	0.461	0.123	0.0861	0.169	0.14	0.128	0.141	0.0869
NCI-H596		0.882	0.882	0.719	0.504		1.02	0.969	0.967	0.404	0.606	0.665	0.788	0.727	0.26	0.825	0.878	0.779	0.592	0.314

Cell Line	relative viability (Alisertib + Crizotinib; first compound 0.005 µM)	relative viability (Alisertib + Crizotinib; first compound 0.01581 µM)	relative viability (Alisertib + Crizotinib; first compound 0.05 µM)	relative viability (Alisertib + Crizotinib; first compound 0.1581 µM)	relative viability (Alisertib + Crizotinib; first compound 0.5 µM)	relative viability (Alisertib + Linsitinib; first compound 0.005 µM)	relative viability (Alisertib + Linsitinib; first compound 0.01581 µM)	relative viability (Alisertib + Linsitinib; first compound 0.05 µM)	relative viability (Alisertib + Linsitinib; first compound 0.1581 µM)	relative viability (Alisertib + Linsitinib; first compound 0.5 µM)	relative viability (Alisertib + OSI-027; first compound 0.005 µM)	relative viability (Alisertib + OSI-027; first compound 0.01581 µM)	relative viability (Alisertib + OSI-027; first compound 0.05 µM)	relative viability (Alisertib + OSI-027; first compound 0.1581 µM)	relative viability (Alisertib + OSI-027; first compound 0.5 µM)	relative viability (Alisertib + Tozasertib; first compound 0.005 µM)	relative viability (Alisertib + Tozasertib; first compound 0.01581 µM)	relative viability (Alisertib + Tozasertib; first compound 0.05 µM)	relative viability (Alisertib + Tozasertib; first compound 0.1581 µM)	relative viability (Alisertib + Tozasertib; first compound 0.5 µM)
LC-2-ad	0.369	0.378	0.266	0.353	0.202	0.643	0.399	0.187	0.135	0.121	0.587	0.368	0.441	0.307	0.268	0.441	0.367	0.366	0.338	0.323
SK-MES-1	0.914	0.801	0.673	0.25	0.18	0.953	0.963	0.725	0.279	0.16	0.563	0.572	0.276	0.21	0.117	0.819	0.705	0.429	0.207	0.135
A-427	0.903	0.839	0.136	0.146	0.174	1.07	0.986	0.257	0.202	0.184	0.406	0.291	0.13	0.162	0.133	0.211	0.166	0.174	0.186	0.135
NCI-H322M	0.809	0.777	0.431	0.498	0.313	0.895	0.883	0.435	0.459	0.356	0.568	0.517	0.466	0.326	0.351	0.394	0.491	0.506	0.453	0.509
HCC-366	0.686	0.456	0.0307	0.0254	0.0216	0.688	0.611	0.043	0.0079	0.0142	0.973	0.696	0.0686	0.04	0.0334	0.125	0.0689	0.0539	0.0439	0.0387
NCI-H1975	0.945	0.728	0.301	0.27	0.193	0.917	0.861	0.484	0.331	0.188	0.582	0.715	0.431	0.192	0.143	0.695	0.65	0.336	0.212	0.124
NCI-H1437	0.855	0.878	0.45	0.338	0.141	0.951	0.775	0.365	0.15	0.104	0.722	0.699	0.394	0.219	0.154	0.38	0.372	0.297	0.269	0.195
NCI-H2009	0.927	0.916	0.453	0.238	0.175	1.24	1.14	0.672	0.427	0.213	0.497	0.587	0.334	0.233	0.152	0.732	0.663	0.427	0.336	0.22
NCI-H1651	0.898	0.807	0.41	0.204	0.256	0.843	0.774	0.451	0.217	0.22	0.621	0.609	0.417	0.288	0.203	0.492	0.617	0.273	0.269	0.205
LCLC-103H	1.04	1.04	0.719	0.374	0.412	1.05	1.03	1.03	0.235	0.297	0.427	0.438	0.473	0.201	0.204	0.432	0.42	0.223	0.247	0.26
NCI-H1666	0.934	0.729	0.474	0.349	0.363	0.815	0.812	0.41	0.317	0.253	0.7	0.7	0.592	0.494	0.367	0.625	0.412	0.365	0.391	0.355
NCI-H1734	0.669	0.523	0.357	0.227	0.155	0.869	0.86	0.469	0.334	0.213	0.562	0.436	0.296	0.277	0.18	0.262	0.231	0.22	0.195	0.188
EPLC-272H	0.931	0.851	0.739	0.201	0.113	0.998	0.865	0.921	0.3	0.131	0.275	0.282	0.256	0.131	0.124	0.238	0.176	0.144	0.192	0.16
NCI-H2023	0.721	0.64	0.345	0.142	0.112	0.653	0.505	0.355	0.285	0.108	0.333	0.324	0.317	0.162	0.0743	0.419	0.368	0.263	0.215	0.0951
BEN	0.868	0.838	0.238	0.213	0.237	0.83	0.878	0.259	0.208	0.205	0.296	0.265	0.24	0.217	0.158	0.531	0.457	0.375	0.456	0.4
COR-L 105	0.857	0.587	0.621	0.523	0.251	0.879	0.722	0.682	0.332	0.241	0.59	0.66	0.546	0.248	0.267	0.31	0.346	0.299	0.352	0.276
